Assay results reported in ChEMBL document CHEMBL1140386, “Pharmacophore-based design of HIV-1 integrase strand-transfer inhibitors” (J Med Chem, 2005).
pEC50, pIC50: −log10 of the molar value.

Legend:
[1] = target: T1, Human immunodeficiency virus type 1 integrase (Human immunodeficiency virus 1, UniProt Q7ZJM1)
Description: Strand transfer inhibitory activity against HIV-1 integrase

[2] = system: Human immunodeficiency virus 1; assay: Effective concentration required to reduce HIV-1-induced cytopathic effect in MT-4 cells; type: functional, organism-based; details: Human immunodeficiency virus 1, MT4
[3] = target: T1, Human immunodeficiency virus type 1 integrase; assay: In vitro concentration required to inhibit the HIV-1 integrase strand transfer
MT4 [4] = assay: Selectivity index was measured by the ratio of CC50/EC50; type: functional
MT4 [5] = assay: Cytotoxic concentration required to reduce MT-4 cell viability; type: functional; details: Homo sapiens
[6] = target: T1, Human immunodeficiency virus type 1 integrase; assay: In vitro concentration required to inhibit the overall HIV-1 integrase strand transfer
[7] = target: T1, Human immunodeficiency virus type 1 integrase; assay: In vitro concentration required to inhibit the HIV-1 integrase 3'-processing

T1 sequence (Q7ZJM1 whole entry): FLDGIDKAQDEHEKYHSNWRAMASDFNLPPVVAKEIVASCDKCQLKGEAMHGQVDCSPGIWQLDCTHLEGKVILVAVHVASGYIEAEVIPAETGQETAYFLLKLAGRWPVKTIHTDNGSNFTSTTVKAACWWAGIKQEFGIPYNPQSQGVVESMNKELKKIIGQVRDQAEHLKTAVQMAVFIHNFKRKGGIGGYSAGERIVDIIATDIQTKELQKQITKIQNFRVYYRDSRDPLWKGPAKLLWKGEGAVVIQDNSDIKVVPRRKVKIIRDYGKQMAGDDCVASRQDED

Row | Compound | pIC50 [1] | pEC50 [2] | pIC50 [3] | Selectivity index (MT4 [4]) | CC50 (MT4 [5]) [nM] | pIC50 [6] | pIC50 [7]
1 | O=C(O)C(=O)/C=C(\O)c1ccc(Oc2ccccc2)cc1 | 4.94 |  |  |  |  |  | 
2 | O=C(O)C(=O)/C=C(\O)c1cn(Cc2ccccc2)c2ccccc12 |  | 4.70 | 7.52 | > 4 | > 78000 | 7.70 | 5.08
3 | O=C(O)C(=O)/C=C(\O)c1cccc(Cc2ccccc2)c1 | 8.00 |  |  |  |  |  | 
4 | CCOC(=O)C(=O)/C=C(\O)c1cn(Cc2ccccc2)c2ccc(OC)cc12 |  | 5.22 | 6.17 | 5 | 29000 | 6.82 | 3.79
5 | O=C(O)C(=O)/C=C(\O)c1cn(Cc2ccccc2)c2ccc(Cl)cc12 |  | 5.32 | 7.00 | 8 | 37200 | 8.00 | 6.01
6 | COc1ccc2c(c1)c(/C(O)=C/C(=O)C(=O)O)cn2Cc1ccc(F)cc1 |  | 5.24 | 8.40 | 11 | 63500 | 7.72 | 5.57
7 | COc1ccc2c(c1)c(/C(O)=C/C(=O)C(=O)O)cn2Cc1ccccc1 |  | 5.27 | 7.68 | 16 | 86400 | 7.77 | 5.67
8 | CCOC(=O)C(=O)/C=C(\O)c1cn(Cc2ccccc2)c2ccc(Cl)cc12 |  | 5.35 | 7.52 | 8 | 34000 | 6.66 | 4.99
9 | CCOC(=O)C(=O)/C=C(\O)c1cn(Cc2ccc(F)cc2)c2ccccc12 |  | 5.03 | 5.82 | 3 | 27200 | 5.92 | < 3.57
10 | O=C(O)C(=O)/C=C(\O)c1ccsc1Cc1ccccc1 | 6.74 |  |  |  |  |  | 
11 | O=C(O)C(=O)/C=C(\O)c1cn(Cc2ccc(F)cc2)c2ccccc12 |  | 5.27 | 7.82 | > 14 | > 74000 | 8.70 | 5.28
12 | O=C(O)C(=O)/C=C(\O)c1cccc(Br)c1 | 5.60 |  |  |  |  |  | 
13 | O=C(O)C(=O)/C=C(\O)c1cc(OCc2ccccc2)cc(OCc2ccccc2)c1 | 7.00 |  |  |  |  |  | 
14 | CCOC(=O)C(=O)/C=C(\O)c1cn(Cc2ccccc2)c2ccccc12 |  | 4.84 | 5.27 | 8 | 120000 | 6.12 | < 3.54
15 | O=C(O)C(=O)/C=C(\O)c1cn(Cc2ccc(F)cc2)c2ccc(Cl)cc12 |  | 5.56 | 8.00 | 19 | 53400 | 6.70 | 5.80
16 | CCOC(=O)C(=O)/C=C(\O)c1cn(Cc2ccc(F)cc2)c2ccc(Cl)cc12 |  | 5.47 | 7.15 | 8 | 26500 | 6.41 | 4.94
17 | COc1cc(Cc2ccccc2)cc(/C(O)=C/C(=O)C(=O)O)c1 | 6.85 |  |  |  |  |  | 
18 | CCC(=O)C(=O)/C=C(\O)c1c[nH]c2ccc(Cl)cc12 | 5.16 |  |  |  |  |  | 
19 | CCOC(=O)C(=O)/C=C(\O)c1cn(Cc2ccc(F)cc2)c2ccc(OC)cc12 |  | 4.84 | 6.10 | 9 | 127000 | 6.66 | 3.88
20 | O=C(NCc1ccc(F)cc1)c1nc(N2CCCCS2(=O)=O)c2cccnc2c1O |  | 8.33 | 8.60 | 457 | 2150 | 9.30 | 6.92
21 | O=C(/C=C(\O)c1c[nH]c2ccc(Cl)cc12)c1nc[nH]n1 | 5.70 |  |  |  |  |  | 

More lines, main results first:

Row | pIC50 [1] | Compound | pEC50 [2] | pIC50 [3] | Selectivity index (MT4 [4]) | CC50 (MT4 [5]) [nM] | pIC50 [6] | pIC50 [7]
22 | 4.00 | CCCCOC(=O)C(=O)/C=C(\O)c1cccn1Cc1ccc(F)cc1 |  |  |  |  |  | 
23 | 7.00 | COc1ccc(Cc2ccccc2)cc1/C(O)=C/C(=O)C(=O)O |  |  |  |  |  | 
24 | 6.30 | O=C(O)C(=O)/C=C(\O)c1ccc(Cc2ccccc2)s1 |  |  |  |  |  | 
25 | 6.82 | COc1ccc(/C(O)=C/C(=O)C(=O)O)cc1Cc1ccccc1 |  |  |  |  |  | 
26 | 6.60 | O=C(O)C(=O)/C=C(\O)c1cccc(Cc2cccc(F)c2)c1 |  |  |  |  |  | 
27 | 4.00 | CC(C)OC(=O)C(=O)/C=C(\O)c1cccn1Cc1ccc(F)cc1 |  |  |  |  |  | 
28 | 6.66 | O=C(O)C(=O)/C=C(\O)c1cccn1Cc1ccccc1 |  |  |  |  |  | 
29 | 7.40 | NC(=O)C(=O)Nc1nc(C(=O)NCc2ccc(F)cc2)c(O)c2ncccc12 |  |  |  |  |  | 
30 | 4.00 | O=C(O)C(=O)/C=C(\O)c1ccnc2ccccc12 |  |  |  |  |  | 
